Measurements from patent publication US10577349B2 (Sanford Burnham Prebys Medical Discovery Institute, priority 2015, dated 2020).

Key:
[1] = molecular target: T1, eIF4F complex (Homo sapiens, UniProt Q04637); experiment: m7GTP pull-down assay, UACC903 melanoma cells; format: cell-based
T1 construct: PLX4032), or Compound 38; endogenous in cells; host or cells: A375, A375R, Lu1205R, WM793R melanoma cells
Protocol: (§1) As previously described (Dowling R J, et al. mTORC1-mediated cell proliferation, but not cell growth, controlled by the 4E-BPs. Science. 2010; 328:1172-6), cells growing in 100 mm plates were washed (cold PBS), collected, and lysed in 50 mM MOPS/KOH (7.4), 100 mM NaCl, 50 mM NaF, 2 mM EDTA, 2 mM EGTA, 1% NP40, 1% Na-DOC, 7 mM β-mercaptoethanol, protease inhibitors and phosphatase inhibitor cocktail (Roche). Lysates were incubated with m7-GDP-agarose beads (Jena Bioscience) for 20 minutes, washed 4 times with the washing buffer containing 50 mM MOPS/KOH (7.4), 100 mM NaCl, 50 mM NaF, 0.5 mM EDTA, 0.5 mM EGTA, 7 mM (3-mercaptoethanol, 0.5 mM PMSF, 1 mM Na3VO4 and 0.1 mM GTP, and bound proteins were eluted by boiling the beads in loading buffer. m7-GDP-agarose pulled down material was analyzed by Western blot analysis.
The dissociation of eIF4G1 from the eIF4F complex was determined using m^7GTP-agarose pull-down, which captures the eIF4F complex. […] Proteins prepared from UACC903 melanoma cells were treated with indicated Compound 38 concentrations and incubated with m^7GTP-agarose beads to capture the eIF4F complex. Shown is dose-dependent inhibition of eIF4G1 binding to eIF4E, concomitant with increased binding of inhibitory 4E-BP1 to eIF4E. Bottom, the total cell lysate.

[2] = molecular target: EmCV Cap-dependent translation; experiment: In vitro translation assay, FF-EmCV-Ren construct, cap-dependent (FF luciferase); format: biochemical, rabbit reticulocyte lysates
Outline: (§2)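 In a cell-free system, lysate-driven translation of FF-IRES-Ren RNA (0.1 μg per well, 2 h, 30° C) follows 1 h compound pre-treatment at room temperature. Dual-Glo readings separate cap-dependent (FF) from IRES-mediated (Ren) output.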

[3] = system: E1A/RAS-transformed 4E-BP DKO MEFs; experiment: Proliferation of E1A/Ras-transformed MEFs (BrdUrd incorporation); format: cell-based; conditions: 48 hours
Protocol: E1A/Ras-transformed WT or 4e-bp1/4e-bp2 DKO MEFs were treated with either Torin1 or Compound 38 at indicated concentrations and cell proliferation was measured 48 hours later with the aid of BrdUrd incorporation. Values were normalized to DMSO-treated triplicates. Error bars, SD (n=3).

[4] = molecular target: HCV cap-independent translation; experiment: In vitro translation assay, FF-HCV-Ren construct, cap-independent (Ren luciferase); format: biochemical, rabbit reticulocyte lysates
Outline: as §2

[5] = molecular target: T2, eIF4F complex (Mus musculus, UniProt Q6NZJ6); experiment: m7GTP pull-down assay, WT or 4E-BP DKO MEFs; format: cell-based; conditions: 6 hours, Torin1 250 nmol/L
T2 construct: endogenous in cells; host or cells: WT and 4E-BP1/2 double-knock-out MEFs
T2 sequence (Q6NZJ6 whole entry, one chain of several): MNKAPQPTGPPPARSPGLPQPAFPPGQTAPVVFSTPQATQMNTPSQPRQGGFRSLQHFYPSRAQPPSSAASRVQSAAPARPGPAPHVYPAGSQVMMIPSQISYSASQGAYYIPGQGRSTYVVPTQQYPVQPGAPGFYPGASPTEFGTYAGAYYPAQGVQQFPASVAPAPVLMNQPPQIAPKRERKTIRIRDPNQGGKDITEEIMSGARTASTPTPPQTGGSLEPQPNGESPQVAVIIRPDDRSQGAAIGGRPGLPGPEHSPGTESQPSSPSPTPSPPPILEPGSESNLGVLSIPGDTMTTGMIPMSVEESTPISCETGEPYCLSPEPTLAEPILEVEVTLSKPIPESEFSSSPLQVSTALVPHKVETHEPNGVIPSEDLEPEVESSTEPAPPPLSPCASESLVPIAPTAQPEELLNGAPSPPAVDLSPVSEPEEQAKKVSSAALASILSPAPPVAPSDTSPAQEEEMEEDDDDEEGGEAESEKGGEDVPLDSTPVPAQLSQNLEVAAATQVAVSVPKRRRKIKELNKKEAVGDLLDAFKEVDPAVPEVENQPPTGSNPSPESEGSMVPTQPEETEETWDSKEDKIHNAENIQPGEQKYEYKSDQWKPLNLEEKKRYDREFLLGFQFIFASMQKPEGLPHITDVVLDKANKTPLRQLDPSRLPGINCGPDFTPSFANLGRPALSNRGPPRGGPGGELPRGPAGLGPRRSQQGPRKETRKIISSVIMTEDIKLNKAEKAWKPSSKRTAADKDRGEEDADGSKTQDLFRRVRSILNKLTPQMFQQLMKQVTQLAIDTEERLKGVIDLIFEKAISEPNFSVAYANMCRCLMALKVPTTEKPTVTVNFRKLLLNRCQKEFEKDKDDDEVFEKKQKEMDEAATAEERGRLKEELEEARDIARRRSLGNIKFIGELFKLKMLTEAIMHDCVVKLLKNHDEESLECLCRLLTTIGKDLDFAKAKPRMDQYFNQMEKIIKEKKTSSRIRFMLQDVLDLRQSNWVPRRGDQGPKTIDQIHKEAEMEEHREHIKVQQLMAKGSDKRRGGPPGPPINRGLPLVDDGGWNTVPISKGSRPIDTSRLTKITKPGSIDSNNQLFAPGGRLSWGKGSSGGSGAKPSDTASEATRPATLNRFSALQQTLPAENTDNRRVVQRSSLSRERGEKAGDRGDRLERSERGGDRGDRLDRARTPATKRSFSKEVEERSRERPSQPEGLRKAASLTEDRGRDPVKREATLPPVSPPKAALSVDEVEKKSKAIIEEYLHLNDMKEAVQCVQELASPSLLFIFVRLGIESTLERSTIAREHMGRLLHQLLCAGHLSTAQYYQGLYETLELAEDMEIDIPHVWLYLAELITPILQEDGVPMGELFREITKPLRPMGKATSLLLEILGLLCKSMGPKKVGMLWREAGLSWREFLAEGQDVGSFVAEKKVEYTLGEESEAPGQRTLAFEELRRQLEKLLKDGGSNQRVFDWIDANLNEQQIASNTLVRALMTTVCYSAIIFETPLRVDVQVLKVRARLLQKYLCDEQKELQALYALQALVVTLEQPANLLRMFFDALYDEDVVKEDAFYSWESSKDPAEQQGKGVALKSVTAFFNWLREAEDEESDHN
Protocol: as §1
Indicated cultures (WT or DKO 4E-BP) were treated with Torin1 (250 nmol/L) or indicated Compound 38 concentrations for 6 hours. Western blots show respective protein levels in total cell lysates or following pull-down using m^7GTP agarose beads. […] P3-Actin served as a loading control and to exclude contamination in m^7GTP pull-down.

[6] = system: WM1346 (NRAS mutant) cell line; experiment: Reverse phase protein array analysis (RPPA), WM1346; format: cell-based, human; conditions: WM1346, 1 μM, 24 h
Protocol: UACC903 and WM1346 cells were treated with DMSO (controls) or 1 μM Compound 38 for 24 h in triplicate. Cells were lysed with lysis buffer (1% Triton X-100, 50 mM HEPES, pH 7.4, 150 mM NaCl, 1.5 mM MgCl2, 1 mM EGTA, 100 mM NaF, 10 mM Na pyrophosphate, 1 mM Na3VO4, 10% glycerol, with freshly added protease and phosphatase inhibitors) and centrifuged at 13,000 g for 20 minutes. Denatured protein lysates containing the same amount of protein were then subjected to RPPA analysis at the RPPA Core Facility, Md. Anderson Cancer Center, as previously described (Tibes. R., et al. Reverse phase protein array: validation of a novel proteomic technology and utility for analysis of primary leukemia specimens and hematopoietic stem cells. Molecular cancer therapeutics 5, 2512-2521 (2006)),
A reverse phase protein array (RPPA) analysis of BRAF- and NRAS-mutant melanomas was performed to identify protein networks affected by Compound 38 (Table 4).

## O=C(/C=C/c1cncc(F)c1)c1c(-c2ccccc2)c2cc(Cl)ccc2[nH]c1=O [Compound 38, 6-Chloro-3-[3-(5-fluoro-pyridin-3-yl)-acryloyl]-4-phenyl-1H-quinolin-2-one]
[1]
  dissociation of eIF4G1 from the eIF4F complex (m7GTP-agarose pull-down): dissociated eIF4G1 from the eIF4E in a dose-dependent manner
[2]
  IC50: 2 to 10 µM
[3]
  proliferation of E1A/RAS-transformed 4E-BP DKO MEFs: attenuated the proliferation
[4]
  IC50: 2 to 10 µM
[5]
  eIF4G1:eIF4E association (m7GTP pull-down): reduced eIF4G1:eIF4E association in both WT and 4E-BP DKO MEFs
[6]
  Ratio [Compound 38/DMSO] A-Raf: 0.90
  Ratio [Compound 38/DMSO] AR: 0.72
  Ratio [Compound 38/DMSO] ATM: 0.82
  Ratio [Compound 38/DMSO] ATR: 0.76
  Ratio [Compound 38/DMSO] BRCA2: 0.90
  Ratio [Compound 38/DMSO] C-Raf: 0.93
  Ratio [Compound 38/DMSO] Chk1: 0.94
  Ratio [Compound 38/DMSO] Ets-1: 0.91
  Ratio [Compound 38/DMSO] GCN5L2: 0.86
  Ratio [Compound 38/DMSO] INPP4b: 0.88
  Ratio [Compound 38/DMSO] MSH6: 0.78
  Ratio [Compound 38/DMSO] PI3K-p85: 0.96
  Ratio [Compound 38/DMSO] PI3K-p110-alpha: 0.95
  Ratio [Compound 38/DMSO] Rad51: 0.78
  Ratio [Compound 38/DMSO] Raptor: 0.87
  Ratio [Compound 38/DMSO] Rictor_pT1135: 0.91
  Ratio [Compound 38/DMSO] S6_pS235_S236: 0.70
  Ratio [Compound 38/DMSO] S6_pS240_S244: 0.65
  Ratio [Compound 38/DMSO] Stat5a: 0.67
  Ratio [Compound 38/DMSO] Tuberin: 0.68
  Ratio [Compound 38/DMSO] YB1: 0.69
  Ratio [Compound 38/DMSO] c-Kit: 0.94
  Ratio [Compound 38/DMSO] c-Myc: 0.80
  Ratio [Compound 38/DMSO] mTOR: 0.71
  Ratio [Compound 38/DMSO] mTOR_pS2448: 0.76
  Ratio [Compound 38/DMSO] p70-S6K_pT389: 0.81
